Experimental data taken from patent US9975878B2, “Substituted triazine BMI-1 inhibitors” (PTC Therapeutics, Inc., priority 2013, dated 2018).

Each compound was assayed on Bmi-1 protein (assay: Sandwich ELISA Assay: Bmi-1 protein level in HT-1080 cells treated with test compounds).
Assay type: cell-based
How it was run: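 HT-1080 cells exposed to compounds (final DMSO 0.5%) for 40-48 h at 37° C, 5% CO2, then lysed. Bmi-1 quantified by sandwich ELISA (mouse anti-Bmi-1 capture, rabbit anti-Bmi-1 detection, HRP anti-rabbit, TMB), read at OD450 with OD570 reference, against recombinant GST-Bmi-1 standard curve (0-8000 pg/mL).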

`Cc1ccc(Nc2nc(N)nc(-n3c(C)nc4ccc(F)cc43)n2)cc1` [Cpd 165, 6-(6-fluoro-2-methyl-1H-benzimidazol-1-yl)-N-(4-methylphenyl)-1,3,5-triazine-2,4-diamine] and `CCc1nc2ccc(F)cc2n1-c1nc(N)nc(Nc2ccc(C)cc2)n1` [Cpd 169, 6-(2-ethyl-6-fluoro-1H-benzimidazol-1-yl)-N-(4-methylphenyl)-1,3,5-triazine-2,4-diamine] fall in the same range of EC50: 1 to 10 nM for the first, 1 to 10 nM for the second.

`Cc1nc2ccc(F)cc2n1-c1nc(N)nc(Nc2ccc(Cl)cc2)n1` [Cpd 166, N-(4-chlorophenyl)-6-(6-fluoro-2-methyl-1H-benzimidazol-1-yl)-1,3,5-triazine-2,4-diamine] and `CCc1nc2ccc(F)cc2n1-c1nc(N)nc(Nc2ccc(Cl)cc2)n1` [Cpd 170, N-(4-chlorophenyl)-6-(2-ethyl-6-fluoro-1H-benzimidazol-1-yl)-1,3,5-triazine-2,4-diamine] fall in the same range of EC50: 10 to 100 nM for the first, 10 to 100 nM for the second.

`Cc1nc2ccccc2n1-c1nc(N)nc(Nc2ccc(C(C)C)cc2)n1` [Cpd 167, 6-(2-methyl-1H-benzimidazol-1-yl)-N-[4-(propan-2-yl)phenyl]-1,3,5-triazine-2,4-diamine] and `Cc1nc2ccccc2n1-c1nc(N)nc(Nc2ccc(Cl)c(F)c2)n1` [Cpd 197, N-(4-chloro-3-fluorophenyl)-6-(2-methyl-1H-benzimidazol-1-yl)-1,3,5-triazine-2,4-diamine] fall in the same range of EC50: 100 to 3000 nM for the first, 100 to 3000 nM for the second.

`CCc1nc2ccc(F)cc2n1-c1nc(N)nc(Nc2ccc(OC)cc2)n1` [Cpd 168, 6-(2-ethyl-6-fluoro-1H-benzimidazol-1-yl)-N-(4-methoxyphenyl)-1,3,5-triazine-2,4-diamine] and `CCc1nc2cc(F)ccc2n1-c1nc(N)nc(Nc2ccc(OC)cc2)n1` [Cpd 173, 6-(2-ethyl-5-fluoro-1H-benzimidazol-1-yl)-N-(4-methoxyphenyl)-1,3,5-triazine-2,4-diamine] fall in the same range of EC50: 1 to 10 nM for the first, 1 to 10 nM for the second.

`CCc1nc2ccc(F)cc2n1-c1nc(N)nc(Nc2ccc(OC(F)(F)F)cc2)n1` [Cpd 171, 6-(2-ethyl-6-fluoro-1H-benzimidazol-1-yl)-N-[4-(trifluoromethoxy)phenyl]-1,3,5-triazine-2,4-diamine] and `Cc1nc2ccc(F)cc2n1-c1nc(N)nc(Nc2ccc(OC(F)(F)F)cc2)n1` [Cpd 172, 6-(6-fluoro-2-methyl-1H-benzimidazol-1-yl)-N-[4-(trifluoromethoxy)phenyl]-1,3,5-triazine-2,4-diamine] fall in the same range of EC50: 100 to 3000 nM for the first, 100 to 3000 nM for the second.

First: CCc1nc2cc(F)ccc2n1-c1nc(N)nc(Nc2ccc(C)cc2)n1 [Cpd 174, 6-(2-ethyl-5-fluoro-1H-benzimidazol-1-yl)-N-(4-methylphenyl)-1,3,5-triazine-2,4-diamine]
Second: CCc1nc2cc(F)ccc2n1-c1nc(N)nc(Nc2ccc(Cl)cc2)n1 [Cpd 175, N-(4-chlorophenyl)-6-(2-ethyl-5-fluoro-1H-benzimidazol-1-yl)-1,3,5-triazine-2,4-diamine]
The EC50 of the first is lower: 10 to 100 nM for the first, 100 to 3000 nM for the second.

`COc1ccc(Nc2nc(N)nc(-n3c(C4CC4)nc4ccc(F)cc43)n2)cc1` [Cpd 176, 6-(2-cyclopropyl-6-fluoro-1H-benzimidazol-1-yl)-N-(4-methoxyphenyl)-1,3,5-triazine-2,4-diamine] and `COc1ccc(Nc2nc(N)nc(-n3c(C4CC4)nc4cc(F)ccc43)n2)cc1` [Cpd 191, 6-(2-cyclopropyl-5-fluoro-1H-benzimidazol-1-yl)-N-(4-methoxyphenyl)-1,3,5-triazine-2,4-diamine] fall in the same range of EC50: 10 to 100 nM for the first, 10 to 100 nM for the second.

`Cc1ccc(Nc2nc(N)nc(-n3c(C4CC4)nc4ccc(F)cc43)n2)cc1` [Cpd 177, 6-(2-cyclopropyl-6-fluoro-1H-benzimidazol-1-yl)-N-(4-methylphenyl)-1,3,5-triazine-2,4-diamine] and `Cc1ccc(Nc2nc(N)nc(-n3c(C4CC4)nc4cc(F)ccc43)n2)cc1` [Cpd 192, 6-(2-cyclopropyl-5-fluoro-1H-benzimidazol-1-yl)-N-(4-methylphenyl)-1,3,5-triazine-2,4-diamine] fall in the same range of EC50: 1 to 10 nM for the first, 1 to 10 nM for the second.

First: Nc1nc(Nc2ccc(Cl)cc2)nc(-n2c(C3CC3)nc3ccc(F)cc32)n1 [Cpd 178, N-(4-chlorophenyl)-6-(2-cyclopropyl-6-fluoro-1H-benzimidazol-1-yl)-1,3,5-triazine-2,4-diamine]
Second: Nc1nc(Nc2ccc(Cl)cc2)nc(-n2c(C3CC3)nc3cc(F)ccc32)n1 [Cpd 193, N-(4-chlorophenyl)-6-(2-cyclopropyl-5-fluoro-1H-benzimidazol-1-yl)-1,3,5-triazine-2,4-diamine]
The EC50 of the first is lower: 10 to 100 nM for the first, 100 to 3000 nM for the second. The first is the more potent here.

`COc1ccc(Nc2nc(N)nc(-n3c(C)nc4c(F)cccc43)n2)cc1` [Cpd 179, 6-(4-fluoro-2-methyl-1H-benzimidazol-1-yl)-N-(4-methoxyphenyl)-1,3,5-triazine-2,4-diamine] and `Cc1ccc(Nc2nc(N)nc(-n3c(C)nc4c(F)cccc43)n2)cc1` [Cpd 180, 6-(4-fluoro-2-methyl-1H-benzimidazol-1-yl)-N-(4-methylphenyl)-1,3,5-triazine-2,4-diamine] fall in the same range of EC50: 1 to 10 nM for the first, 1 to 10 nM for the second.

First: Cc1nc2c(F)cccc2n1-c1nc(N)nc(Nc2ccc(Cl)cc2)n1 [Cpd 181, N-(4-chlorophenyl)-6-(4-fluoro-2-methyl-1H-benzimidazol-1-yl)-1,3,5-triazine-2,4-diamine]
Second: Nc1nc(Nc2ccc(Cl)cc2)nc(-n2c(C3CC3)nc3c(F)cccc32)n1 [Cpd 184, N-(4-chlorophenyl)-6-(2-cyclopropyl-4-fluoro-1H-benzimidazol-1-yl)-1,3,5-triazine-2,4-diamine]
The EC50 of the first is higher: 100 to 3000 nM for the first, 10 to 100 nM for the second. The second is the more potent here.

Compared with `COc1ccc(Nc2nc(N)nc(-n3c(C4CC4)nc4c(F)cccc43)n2)cc1` [Cpd 182, 6-(2-cyclopropyl-4-fluoro-1H-benzimidazol-1-yl)-N-(4-methoxyphenyl)-1,3,5-triazine-2,4-diamine], `Cc1ccc(Nc2nc(N)nc(-n3c(C4CC4)nc4c(F)cccc43)n2)cc1` [Cpd 183, 6-(2-cyclopropyl-4-fluoro-1H-benzimidazol-1-yl)-N-(4-methylphenyl)-1,3,5-triazine-2,4-diamine] is higher in EC50: 1 to 10 nM for the first, 10 to 100 nM for the second. The first is the more potent here.

`COc1ccc(Nc2nc(N)nc(-n3c(C)nc4c(F)cc(F)cc43)n2)cc1` [Cpd 185, 6-(4,6-difluoro-2-methyl-1H-benzimidazol-1-yl)-N-(4-methoxyphenyl)-1,3,5-triazine-2,4-diamine] and `CCc1nc2c(F)cc(F)cc2n1-c1nc(N)nc(Nc2ccc(OC)cc2)n1` [Cpd 188, 6-(2-ethyl-4,6-difluoro-1H-benzimidazol-1-yl)-N-(4-methoxyphenyl)-1,3,5-triazine-2,4-diamine] fall in the same range of EC50: 1 to 10 nM for the first, 1 to 10 nM for the second.

Compared with `Cc1ccc(Nc2nc(N)nc(-n3c(C)nc4c(F)cc(F)cc43)n2)cc1` [Cpd 186, 6-(4,6-difluoro-2-methyl-1H-benzimidazol-1-yl)-N-(4-methylphenyl)-1,3,5-triazine-2,4-diamine], `CCc1nc2c(F)cc(F)cc2n1-c1nc(N)nc(Nc2ccc(C)cc2)n1` [Cpd 189, 6-(2-ethyl-4,6-difluoro-1H-benzimidazol-1-yl)-N-(4-methylphenyl)-1,3,5-triazine-2,4-diamine] is higher in EC50: 1 to 10 nM for the first, 10 to 100 nM for the second.

First: Cc1nc2c(F)cc(F)cc2n1-c1nc(N)nc(Nc2ccc(Cl)cc2)n1 [Cpd 187, N-(4-chlorophenyl)-6-(4,6-difluoro-2-methyl-1H-benzimidazol-1-yl)-1,3,5-triazine-2,4-diamine]
Second: CCc1nc2c(F)cc(F)cc2n1-c1nc(N)nc(Nc2ccc(Cl)cc2)n1 [Cpd 190, N-(4-chlorophenyl)-6-(2-ethyl-4,6-difluoro-1H-benzimidazol-1-yl)-1,3,5-triazine-2,4-diamine]
The EC50 of the first is higher: 100 to 3000 nM for the first, 10 to 100 nM for the second.

First: COc1ccc(Nc2nc(N)nc(-n3c(C)nc4cc(F)c(F)cc43)n2)cc1 [Cpd 194, 6-(5,6-difluoro-2-methyl-1H-benzimidazol-1-yl)-N-(4-methoxyphenyl)-1,3,5-triazine-2,4-diamine]
Second: Cc1ccc(Nc2nc(N)nc(-n3c(C)nc4cc(F)c(F)cc43)n2)cc1 [Cpd 195, 6-(5,6-difluoro-2-methyl-1H-benzimidazol-1-yl)-N-(4-methylphenyl)-1,3,5-triazine-2,4-diamine]
The EC50 of the first is lower: 1 to 10 nM for the first, 10 to 100 nM for the second.

`Cc1nc2cc(F)c(F)cc2n1-c1nc(N)nc(Nc2ccc(Cl)cc2)n1` [Cpd 196, N-(4-chlorophenyl)-6-(5,6-difluoro-2-methyl-1H-benzimidazol-1-yl)-1,3,5-triazine-2,4-diamine] and `Cc1nc2ccc(F)cc2n1-c1nc(N)nc(Nc2ccc(Cl)c(F)c2)n1` [Cpd 201, N-(4-chloro-3-fluorophenyl)-6-(6-fluoro-2-methyl-1H-benzimidazol-1-yl)-1,3,5-triazine-2,4-diamine] fall in the same range of EC50: 100 to 3000 nM for the first, 100 to 3000 nM for the second.

Compared with `CCc1nc2ccccc2n1-c1nc(N)nc(Nc2ccc(Cl)c(F)c2)n1` [Cpd 198, N-(4-chloro-3-fluorophenyl)-6-(2-ethyl-1H-benzimidazol-1-yl)-1,3,5-triazine-2,4-diamine], `CCc1nc2c(F)cc(F)cc2n1-c1nc(N)nc(Nc2ccc(Cl)c(F)c2)n1` [Cpd 200, N-(4-chloro-3-fluorophenyl)-6-(2-ethyl-4,6-difluoro-1H-benzimidazol-1-yl)-1,3,5-triazine-2,4-diamine] is higher in EC50: 10 to 100 nM for the first, 100 to 3000 nM for the second. The first is the more potent here.

First: Cc1nc2c(F)cc(F)cc2n1-c1nc(N)nc(Nc2ccc(Cl)c(F)c2)n1 [Cpd 199, N-(4-chloro-3-fluorophenyl)-6-(4,6-difluoro-2-methyl-1H-benzimidazol-1-yl)-1,3,5-triazine-2,4-diamine]
Second: COc1ccc(Nc2nncc(-n3c(C)nc4ccccc43)n2)cc1 [Cpd 204, N-(4-methoxyphenyl)-5-(2-methyl-1H-benzimidazol-1-yl)-1,2,4-triazin-3-amine]
The EC50 of the first is higher: 100 to 3000 nM for the first, 1 to 10 nM for the second.

First: Cc1nc2ccccc2n1-c1cnnc(Nc2ccc(OC(F)F)cc2)n1 [Cpd 202, N-[4-(difluoromethoxy)phenyl]-5-(2-methyl-1H-benzimidazol-1-yl)-1,2,4-triazin-3-amine]
Second: CCc1nc2ccccc2n1-c1cnnc(Nc2ccc(OC(F)F)cc2)n1 [Cpd 203, N-[4-(difluoromethoxy)phenyl]-5-(2-ethyl-1H-benzimidazol-1-yl)-1,2,4-triazin-3-amine]
The EC50 of the first is higher: 100 to 3000 nM for the first, 10 to 100 nM for the second.
